Assay results reported in PubChem BioAssay AID256 (DTP/NCI, 2004).
Where “and” joins values, the source holds several entries; their conditions need not be identical. Equal entries are not always repeated. Toxic doses and inconclusive results are not listed. The calls were made as follows: active = survival T/C of 150% or more; inactive = T/C below 125% in these data.

System: CD2F1 mice, L1210 leukemia ip, survival T/C
Test: NCI In Vivo Anticancer Drug Screen. Data for tumor model L1210 Leukemia (intraperitoneal) in CD2F1 (CDF1) mice
Settings: higher = longer survival
How it was run: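 Transplantable tumor in mice; compound-treated vs vehicle-treated groups. Read-out = treated/control ratio of the measured endpoint.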

[1] = endpoint: mean survival time, dose: 12.5 mg/kg/injection, schedule: Q01DX005 (ip), vehicle: water
[2] = endpoint: mean survival time, dose: 25.0 mg/kg/injection, schedule: Q01DX005 (ip), vehicle: water
[3] = endpoint: mean survival time, dose: 100.0 mg/kg/injection, schedule: Q04DX003 (ip), vehicle: saline with Tween-80
[4] = endpoint: mean survival time, dose: 200.0 mg/kg/injection, schedule: Q04DX003 (ip), vehicle: saline with Tween-80
[5] = endpoint: mean survival time, dose: 400.0 mg/kg/injection, schedule: Q04DX003 (ip), vehicle: saline with Tween-80
[6] = endpoint: mean survival time, dose: 100.0 mg/kg/injection, schedule: Q01DX009 (ip), vehicle: saline with Tween-80
[7] = endpoint: mean survival time, dose: 200.0 mg/kg/injection, schedule: Q01DX009 (ip), vehicle: saline with Tween-80
[8] = endpoint: mean survival time, dose: 25.0 mg/kg/injection, schedule: Q01DX009 (ip), vehicle: saline with Tween-80
[9] = endpoint: mean survival time, dose: 50.0 mg/kg/injection, schedule: Q01DX009 (ip), vehicle: saline with Tween-80
[10] = endpoint: mean survival time, dose: 100.0 mg/kg/injection, schedule: Q01DX001 (ip), vehicle: saline
[11] = endpoint: mean survival time, dose: 50.0 mg/kg/injection, schedule: Q04DX003 (ip), vehicle: saline with Tween-80

Measured: T/C

OCC1OC(n2ncc3c(NO)ncnc32)C(O)C1O (centres undefined)
inactive: endpoint: mean survival time, dose: 1.56 mg/kg/injection, schedule: Q01DX005 (ip), vehicle: water 103 % of control | endpoint: mean survival time, dose: 3.13 mg/kg/injection, schedule: Q01DX005 (ip), vehicle: water 107 % of control | endpoint: mean survival time, dose: 6.25 mg/kg/injection, schedule: Q01DX005 (ip), vehicle: water 103 % of control | [1] 114 % of control | [2] 88 % of control

CC(C)C(C)OC(=O)Nc1cccc(O)c1 (centres undefined)
inactive: [3] 99 % of control | [4] 97 % of control | [5] 97 % of control

CSc1ccc(C)cn1 (tested in a mixture with another compound)
inactive: [6] 100 % of control | [7] 97 % of control

CC(=O)OCC1OC(n2cnc3c(=S)nc(N)[nH]c32)C(OC(C)=O)C1OC(C)=O (centres undefined)
inactive: endpoint: mean survival time, dose: 100.0 mg/kg/injection, schedule: Q01DX005 (ip), vehicle: saline 112 % of control | endpoint: mean survival time, dose: 200.0 mg/kg/injection, schedule: Q01DX005 (ip), vehicle: saline 123 % of control

O=C(COc1ccc(Cl)c(Cl)c1)Nc1ccc(Cl)cc1
inactive: endpoint: mean survival time, dose: 6.25 mg/kg/injection, schedule: Q01DX009 (ip), vehicle: saline with Tween-80 98 % of control | endpoint: mean survival time, dose: 12.5 mg/kg/injection, schedule: Q01DX009 (ip), vehicle: saline with Tween-80 98 % of control | [8] 98 % of control

CSC1SCC2C(=O)N(C)C(C(C)C)C(=O)OCC(NC(=O)c3cnc4ccccc4n3)C(=O)NC(C)C(=O)N(C)C1C(=O)N(C)C(C(C)C)C(=O)OCC(NC(=O)c1cnc3ccccc3n1)C(=O)NC(C)C(=O)N2C (centres undefined)
inactive: endpoint: mean survival time, dose: 4.0 micrograms/kg/injection, schedule: Q01DX009 (ip), vehicle: saline 105 % of control | endpoint: mean survival time, dose: 8.0 micrograms/kg/injection, schedule: Q01DX009 (ip), vehicle: saline 107 % of control | endpoint: mean survival time, dose: 15.0 micrograms/kg/injection, schedule: Q01DX009 (ip), vehicle: saline 102 % of control | endpoint: mean survival time, dose: 16.0 micrograms/kg/injection, schedule: Q01DX009 (ip), vehicle: saline 111 % of control | endpoint: mean survival time, dose: 30.0 micrograms/kg/injection, schedule: Q01DX009 (ip), vehicle: saline 118 % of control | endpoint: mean survival time, dose: 32.0 micrograms/kg/injection, schedule: Q01DX009 (ip), vehicle: saline 92 % of control | endpoint: mean survival time, dose: 60.0 micrograms/kg/injection, schedule: Q01DX009 (ip), vehicle: saline 108 % of control | endpoint: mean survival time, dose: 120.0 micrograms/kg/injection, schedule: Q01DX009 (ip), vehicle: saline 86 % of control | endpoint: mean survival time, dose: 192.0 micrograms/kg/injection, schedule: Q01DX009 (ip), vehicle: saline 114 % of control | endpoint: median survival time, dose: 67.0 micrograms/kg/injection, schedule: Q01DX005 (ip), vehicle: saline 122 % of control | endpoint: median survival time, dose: 150.0 micrograms/kg/injection, schedule: Q01DX005 (ip), vehicle: saline 120 % of control and 123 % of control | endpoint: median survival time, dose: 200.0 micrograms/kg/injection, schedule: Q01DX005 (ip), vehicle: saline 106 % of control

COc1ccc2c(O)c(Cc3ccccc3)c(=O)oc2c1
inactive: [9] 112 % of control | [6] 103 % of control | [7] 103 % of control

O=c1c(-c2ccccc2)nn(C2OC(CO)C(O)C(O)C2O)c(=S)n1-c1ccccc1 (centres undefined)
inactive: endpoint: mean survival time, dose: 7.8 mg/kg/injection, schedule: Q01DX005 (ip), vehicle: water 101 % of control | endpoint: mean survival time, dose: 15.6 mg/kg/injection, schedule: Q01DX005 (ip), vehicle: water 96 % of control | endpoint: mean survival time, dose: 31.3 mg/kg/injection, schedule: Q01DX005 (ip), vehicle: water 101 % of control | endpoint: mean survival time, dose: 62.5 mg/kg/injection, schedule: Q01DX005 (ip), vehicle: water 93 % of control | endpoint: mean survival time, dose: 125.0 mg/kg/injection, schedule: Q01DX005 (ip), vehicle: water 101 % of control

CCOc1ccc(N=[N+]([O-])c2ccc(OCC)cc2)cc1
inactive: [6] 90 % of control | [3] 96 % of control | [7] 97 % of control | [4] 98 % of control | endpoint: mean survival time, dose: 400.0 mg/kg/injection, schedule: Q01DX009 (ip), vehicle: saline with Tween-80 96 % of control | [5] 101 % of control

O=c1ccn(C2OC(CO)C(O)C2C[N+](=O)[O-])c(=O)[nH]1 (centres undefined)
inactive: [1] 96 % of control | [2] 97 % of control | endpoint: mean survival time, dose: 50.0 mg/kg/injection, schedule: Q01DX005 (ip), vehicle: water 94 % of control | endpoint: mean survival time, dose: 100.0 mg/kg/injection, schedule: Q01DX005 (ip), vehicle: water 91 % of control | endpoint: mean survival time, dose: 200.0 mg/kg/injection, schedule: Q01DX005 (ip), vehicle: water 88 % of control

[O-][n+]1ccccc1F
inactive: [10] 104 % of control

O=C(Nc1ccc(Cl)cc1)c1cc(Br)ccc1O
inactive: [3] 92 % of control | [4] 88 % of control | [5] 92 % of control

CC(=O)Oc1ccccc1C(CC(C)C)OC(C)=O (centres undefined)
inactive: [10] 96 % of control | endpoint: mean survival time, dose: 200.0 mg/kg/injection, schedule: Q01DX001 (ip), vehicle: saline 96 % of control

OC1C2c3ccccc3C(c3c2ccc2ccccc32)C1O (centres undefined)
inactive: endpoint: median survival time, dose: 25.0 mg/kg/injection, schedule: Q04DX003 (ip), vehicle: saline with Tween-80 100 % of control | endpoint: median survival time, dose: 50.0 mg/kg/injection, schedule: Q04DX003 (ip), vehicle: saline with Tween-80 100 % of control | endpoint: median survival time, dose: 100.0 mg/kg/injection, schedule: Q04DX003 (ip), vehicle: saline with Tween-80 100 % of control | endpoint: median survival time, dose: 200.0 mg/kg/injection, schedule: Q04DX003 (ip), vehicle: saline with Tween-80 88 % of control

CCOC(=O)c1cnc2c(ccc3ncccc32)c1NCCCN(CC)CC
inactive: endpoint: mean survival time, dose: 12.5 mg/kg/injection, schedule: Q01DX009 (ip), vehicle: Klucel (hydroxypropylcellulose) (HPC) 93 % of control | endpoint: mean survival time, dose: 25.0 mg/kg/injection, schedule: Q01DX009 (ip), vehicle: Klucel (hydroxypropylcellulose) (HPC) 97 % of control | endpoint: mean survival time, dose: 50.0 mg/kg/injection, schedule: Q01DX009 (ip), vehicle: Klucel (hydroxypropylcellulose) (HPC) 97 % of control

CC(C)C(=O)[O][Sn]([CH2]c1ccccc1)([CH2]c1ccccc1)[CH2]c1ccccc1
inactive: [8] 90 % of control | endpoint: mean survival time, dose: 25.0 mg/kg/injection, schedule: Q04DX003 (ip), vehicle: saline with Tween-80 95 % of control | [9] 95 % of control | [11] 90 % of control | [3] 87 % of control

CC1=C(C)CN(c2ccccc2)SC1
inactive: [3] 98 % of control | [4] 98 % of control | [5] 98 % of control

CC(=O)Nc1cc(Cl)ccc1C(=O)O
inactive: [9] 96 % of control | [6] 98 % of control | [7] 100 % of control

[Cl][Pt+2][Cl].[NH-]C(Cc1ccc(O)cc1)C(=O)O.[NH-]C(Cc1ccc(O)cc1)C(=O)O (centres undefined)
inactive: endpoint: mean survival time, dose: 12.5 mg/kg/injection, schedule: Q04DX003 (ip), vehicle: saline with Tween-80 95 % of control | [11] 97 % of control | [3] 95 % of control

OCCN1CCN(CC/C=C2/c3ccccc3Sc3ccc(Cl)cc32)CC1
inactive: endpoint: mean survival time, dose: 1.56 mg/kg/injection, schedule: Q01DX009 (ip), vehicle: saline 92 % of control and 97 % of control | endpoint: mean survival time, dose: 3.12 mg/kg/injection, schedule: Q01DX009 (ip), vehicle: saline 98 % of control | endpoint: mean survival time, dose: 6.25 mg/kg/injection, schedule: Q01DX009 (ip), vehicle: saline 104 % of control and 110 % of control | endpoint: mean survival time, dose: 12.5 mg/kg/injection, schedule: Q01DX009 (ip), vehicle: saline 116 % of control and 110 % of control | endpoint: mean survival time, dose: 25.0 mg/kg/injection, schedule: Q01DX009 (ip), vehicle: saline 122 % of control and 124 % of control | endpoint: mean survival time, dose: 50.0 mg/kg/injection, schedule: Q01DX009 (ip), vehicle: saline 106 % of control
